US4005220A, “Hemostatic compositions comprising salts of substituted hydroquinone sulfonic acid” (Laboratorios del Dr. Esteve, S.A., priority 1973, dated 1977)
Entries after “also recorded” stand apart in the source; their conditions may differ.

Tests used:
[1] = Partition coefficient butanol/water
mice = assay: Acute toxicity in mice, LD50 (method of Reed and Muench); type: in vivo; settings: mice (summary table)
Experimental: (§1) 1. Acute toxicity in mice
(§2) Albino mice of 18 to 25 g. The LD50 was determined in accordance with the method of Reed and Muench.
(§3) The acute toxicity in mice was determined in accordance with the method of REED and MUENCH, in a modified form (Reed L. J. and Muench H., Am. J. Hyg., 27, 493, 1938). The effect on the average bleeding time was determined by the Roskam technique modified by Laporte (Laporte J., Chemotherapia, 3, 62, 1961).

[2] = as above; type: in vivo; settings: mouse, in vivo, po
Experimental: as §1, §2, §3

capillary permeability = assay: Protective effect on the capillaries: capillary permeability, BEACH-STEINITZ method in a modified form; type: in vivo; settings: intraperitoneally, mice; in words
Excerpt: 4. Protective effect on the capillaries

[3] = tested on: average bleeding time (A.B.T.); assay: Activity-time relationship of the decrease in the A.B.T.; type: in vivo, rabbits; settings: 5 micromols/kg
Excerpt: 3. Activity-time relationship

[4] = tested on: average bleeding time (A.B.T.); assay: Effect on the average bleeding time (A.B.T.), Roskam technique modified by Laporte; type: in vivo; settings: one hour after administration, rabbits
Experimental: 2. Effect on the average bleeding time
as §3

Compound: lithium (tertiary butyl)-p-dihydroxybenzenesulphonate
- Partition coefficient butanol/water [1]: 1.28
- LD50 (mice; i.v.): 1,000 mg/kg

Compound: Ammonium (tertiary butyl)-p-dihydroxybenzenesulphonate
- Partition coefficient butanol/water [1]: 0.42
- LD50 (mice; i.v.): 600 mg/kg

Compound: CC(C)(C)c1cc(O)c(S(=O)(=O)O)cc1O [cyclohexylamine (tertiary butyl)-p-dihydroxybenzenesulphonate]
- LD50 [2]: 1000 mg/kg

Compound: Calcium (tertiary butyl)-p-dihydroxybenzenesulphonate
- Partition coefficient butanol/water [1]: 1.36
- LD50 (mice; p.o.): 2,337 mg/kg

Compound: Diethylamine (tertiary butyl)-p-dihydroxybenzenesulphonate
- capillary permeability (capillary permeability): marked decrease in the capillary permeability
- Partition coefficient butanol/water [1]: 2.38
- % decrease in the A.B.T. ([3]; 1 hour after intravenous administration): 42%
- % decrease in the A.B.T. ([3]; 2 hours after intravenous administration): 43.5%
- % decrease in the A.B.T. ([3]; 4 hours after intravenous administration): 41.0%
- % decrease in the A.B.T. ([3]; 8 hours after intravenous administration): 34.8%
- % decrease in the A.B.T. ([3]; 16 hours after intravenous administration): 33.0%
- % decrease in the A.B.T. ([3]; 24 hours after intravenous administration): 22.5%
- % decrease in the A.B.T. ([3]; 48 hours after intravenous administration): 14.0%
- duration of effect ([3]; in words): lasts for a long time; also recorded: lasts for a markedly longer time than the products already described hitherto
- Decrease in the A.B.T. in % ([4]; 0.625 micromols/kg): 7%
- Decrease in the A.B.T. in % ([4]; 1.25 micromols/kg): 25%
- Decrease in the A.B.T. in % ([4]; 2.5 micromols/kg): 34%
- Decrease in the A.B.T. in % ([4]; 5.0 micromols/kg): 42%
- Decrease in the A.B.T. in % ([4]; 7.05 (sic) micromols/kg): 49%
- Decrease in the A.B.T. in % ([4]; 10.0 micromols/kg): 55%

Compound: Sodium methyl-p-dihydroxybenzenesulphonate
- Partition coefficient butanol/water [1]: 0.87
- LD50 (mice; p.o.): > 1,000 mg/kg
